Laboratory results from patent publication US20100179200A1, “2-OXOTHIAZOLIDINE 4-CARBOXYLIC ACID COMPOUNDS FOR PROMOTING DESQUAMATION OF THE SKIN” (SOCIETE L'OREAL, S.A., priority 2000, published 2010).

Key:
[1] = Solubility of procysteine; assay type: physicochemical
corneodesmosine = assay: Evaluating desquamation by measuring the degradation of corneodesmosines (immunoblot of stratum corneum acetonic powders); assay type: biochemical, human; details: aqueous solution containing 2% of active agent, pH 8.0, incubation 17 h at 30° C., versus control without active agent
Source text: Corneodesmosine is one of the major markers of desquamation of the corneodesmosome. It is studied by immunoblotting after separation by electrophoresis and transfer onto a membrane.
The mouse monoclonal antibody G36-19 is specific for corneodesmosine; it fauns part of a series of antibodies directed against epidermal differentiation antigens, produced after immunizing a mouse with a homogenate of human plantar horny layer, and then characterized (Serre G. et al., J. Invest. Dermatol. 1991; 97(6):1061-72).
Varnish-stripping operations are carried out on the lower legs of volunteers (modification of the procedure by Lundström A. and Egelrud T., Acta Derm. Venereol. (Stockholm) 71, 471-474, 1991). […]
The samples and also a Rainbow (Amersham Pharmacia Biotech) low molecular weight standard at 1/3 are separated by electrophoresis on gel containing 12% acrylamide for 30 minutes at 100 V and then for 1 hour at 200 V. After the electrophoresis, the proteins are transferred onto an Immobilon-P membrane (Millipore) for 3 hours at 60 V. The membrane is then incubated for twice 15 minutes in TBS-TL buffer: 25 mM Tris, 0.15M NaCl pH 7.2, 0.05% Tween 20, 0.5% skimmed milk powder, in order to block the non-specific sites. […] The chemiluminescence of the corneodesmosine bands is measured with the FluorS Multimager (Biorad). The 33 and 46 kD bands are quantified with the Quantity-one software (Biorad). […]

O=C1N[C@H](C(=O)O)CS1 [Procysteine, L-2-oxothiazolidine-4-carboxylic acid]
solubility in ethanol ([1]; ethanol): greater than 10% | solubility in water ([1]; water): greater than 4% | Percentage increase in corneodesmosine degradation (corneodesmosine): 77%
